In patent US20100160369A1, “S1P1 Agonists and Methods of Making And Using” (EXELIXIS, INC., priority 2008, published 2010):

Columns and labels:
S1P1 [1] = molecular target: T1, S1P1 (Homo sapiens, UniProt P21453); assay: DELFIA GTP-Eu Binding Assay (Assay 3b); assay type: biochemical; parameters: purchased Lonza; host or cells: CHO cell membranes
Procedure: The DELFIA GTP-Eu binding assay (PerkinElmer) is a time-resolved fluorometric assay based on GDP-GTP exchange. CHO cell membranes (Lonza) expressing human S1P1 were incubated in 96-well filter plates (Pall, East Hills, N.Y.) in a final volume of 100 μL/well buffer containing 40 μg/mL membrane, 50 mM HEPES, 2 μM GDP, 10 mM MgCl2, 100 mM NaCl, 500 μg/mL Saponin and test compound. Test compounds were tested at maximum concentrations of 10 μM. Compounds were diluted (10 concentration points, 3-fold each) and added to the assay plate at a 1% final DMSO concentration. For each compound, there were duplicate assay plates and each assay plate had duplicate wells per concentration point. The plates were incubated for 30 min at room temperature on a plate shaker at low speed. GTP-Eu was added to each well (10 μL, 10 nM final concentration) and the plate was incubated for an additional 30 min with slow shaking The wells were washed with ice cold GTP washing buffer (3×150 μL) using a vacuum manifold and the assay plates read in an EnVision plate reader (PerkinElmer) at an excitation wavelength of 340 nm and an emission wavelength of 615 nm. To determine agonist activity, percent activity was calculated as [(test compound−background)/(positive control−background)*100], where background is the fluorescence in absence of compound and the positive control is the fluorescence from membranes incubated with 1 μM S1P (Avanti). The percent activities were plotted against compound concentration to determine IC50 or EC50 using XLFit (IDBS).
(§1) Assay 1 is the CNG cAMP Assay as described in Biological Example 1. Assay 2a and 2b are the Tango™ β-arrestin Recruitment Assay in HEK293 and U2OS cells, respectively, as described in Biological Example 2. Assay 3a is the hS1P1R GTPγS Binding Assay as described in Biological Example 3. Assay 3b is the GTP-Eu Binding Assay as described in Biological Example 3. EC50's were measured unless otherwise noted. […] In the table, “nt” means the Compound was not tested and “no” means the compound was tested but had no measurable activity under the assay conditions employed.
Target sequence in this assay (P21453 whole entry): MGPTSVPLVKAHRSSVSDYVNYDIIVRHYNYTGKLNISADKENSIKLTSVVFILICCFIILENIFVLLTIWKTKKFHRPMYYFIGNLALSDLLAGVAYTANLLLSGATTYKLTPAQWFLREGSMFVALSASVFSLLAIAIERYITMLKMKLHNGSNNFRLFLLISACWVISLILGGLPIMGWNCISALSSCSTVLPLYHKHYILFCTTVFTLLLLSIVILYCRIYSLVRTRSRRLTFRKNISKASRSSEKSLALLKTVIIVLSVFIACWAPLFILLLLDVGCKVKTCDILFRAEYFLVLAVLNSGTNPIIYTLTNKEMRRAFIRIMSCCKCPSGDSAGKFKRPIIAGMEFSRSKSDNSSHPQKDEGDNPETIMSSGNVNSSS

S1P1 [2] = molecular target: T1, S1P1; assay: CNG cAMP Assay (Assay 1); assay type: cell-based; parameters: host or cells: HEK293 cells expressing the CNG channel; conditions: read-out: Assay 1 EC50
How it was run: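 cAMP-gated CNG membrane-potential read-out (350/590 nm, T90/T0 ratio) in S1P1/CNG HEK293 cells after 90 min with compound plus NECA 500 nM, S1P 10 nM (EC95), Ro 20-1724 25 μM. Ten 3-fold points from 10 μM, 1.8% DMSO; percent activity vs NECA-only control gives EC50.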
Target sequence in this assay (P21453 whole entry): as above

S1P1 [3] = molecular target: T1, S1P1; assay: Tango β-arrestin Recruitment Assay in HEK293 cells (Assay 2a); assay type: cell-based; parameters: linker with TEV protease (N1a) cleavage site (C); host or cells: HEK293, transiently transfected; conditions: Tango β-arrestin Recruitment Assay, read-out: Assay 2a EC50
How it was run: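 Agonist-driven β-arrestin2–TEV recruitment releases tTA to drive luciferase in transiently transfected HEK293 cells. Ten 3-fold dilutions from 10 μM top (1% DMSO), 16–18 h at 37 °C; EC50 fitted to percent activity versus DMSO background and 5 μM S1P efficacy control.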
Target sequence in this assay (P21453 whole entry): as above
Target sequence in this assay (P32121 whole entry partner): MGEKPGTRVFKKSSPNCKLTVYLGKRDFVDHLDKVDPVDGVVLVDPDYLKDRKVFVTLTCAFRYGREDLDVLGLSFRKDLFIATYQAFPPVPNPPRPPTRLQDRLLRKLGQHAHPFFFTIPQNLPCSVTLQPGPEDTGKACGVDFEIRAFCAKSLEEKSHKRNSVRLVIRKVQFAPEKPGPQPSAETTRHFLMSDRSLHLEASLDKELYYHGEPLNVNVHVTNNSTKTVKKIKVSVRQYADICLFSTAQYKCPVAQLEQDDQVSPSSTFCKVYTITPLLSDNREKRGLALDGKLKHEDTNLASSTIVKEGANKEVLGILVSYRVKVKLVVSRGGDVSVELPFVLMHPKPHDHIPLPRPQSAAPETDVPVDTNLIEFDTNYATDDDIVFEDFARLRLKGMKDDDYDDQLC

S1P1 [4] = molecular target: T1, S1P1; assay: Tango β-arrestin Recruitment Assay in U2OS cells (Assay 2b); assay type: cell-based; parameters: linker with TEV protease (N1a) cleavage site (C); conditions: Tango β-arrestin Recruitment Assay, read-out: Assay 2b EC50
How it was run: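 Agonist EC50 from percent activity relative to 1 μM S1P efficacy control, using background-subtracted 460/530 nm emission ratios. Compounds (max 1 μM, ten 3-fold dilutions) incubated overnight at 37 °C with serum-starved S1P1 U2OS reporter cells, followed by 2 h β-lactamase reagent at room temperature.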
Target sequence in this assay (P21453 whole entry): as the sequence (P21453 whole entry) above
Target sequence in this assay (P32121 whole entry partner): as the sequence (P32121 whole entry partner) above

hS1P1R (hEdg1) = molecular target: T2, hS1P1R (hEdg1) (Homo sapiens, UniProt P21453); assay: hS1P1R GTPγS Binding Assay (Assay 3a); assay type: biochemical
T2 construct: purchased Lonza
T2 sequence (P21453 whole entry): as the sequence (P21453 whole entry) above
Procedure: The hS1P1R GTPγS binding assay was carried out at room temperature in 96 well non-binding surface assay plates. The reaction in each well contained 4 μg hS1P1R (hEdg1) membrane protein (Lonza), 30 μM GDP, 0.1 nM [^35S]GTPγS, 0.25% fatty acid free BSA, and serially diluted hS1P1R agonist compound in 200 μL assay buffer (25 mM Tris-HCl PH 7.9, 100 mM NaCl, 3 mM MgCl2, and 0.2 mM EGTA). After one hour of incubation, 0.9 mg of WGA (Wheat Germ Agglutinin) SPA beads in 50 μL of assay buffer was added to each well. The SPA beads were spun down after an additional one hour incubation. The radioactivity of the bound GTPγS was counted by reading the assay plate using a MicroBeta.
as §1

[5] = relative EC50 was measured (footnote 1), read-out: Assay 3b Relative EC50
[6] = footnote 1: Relative EC50 was measured, read-out: Assay 3b Relative EC50

Row | Compound | EC50 (S1P1 [1]; [5]) | EC50 (S1P1 [2]) | EC50 (S1P1 [3]) | EC50 (S1P1 [1]; read-out: Assay 3b EC50) | EC50 (S1P1 [1]; [6]) | EC50 (S1P1 [4]) | EC50 (hS1P1R (hEdg1))
1 | O=C(O)C1CN(Cc2ccc(-c3noc(-c4cn5cc(C(F)(F)F)cc(Cl)c5n4)n3)c(Cl)c2)C1 [Example 124, 1-[(3-chloro-4-{5-[8-chloro-6-(trifluoromethyl)imidazo[1,2-a]pyridin-2-yl]-1,2,4-oxadiazol-3-yl}phenyl)methyl]azetidine-3-carboxylic acid] | 1000 to 5000 nM | 100 to 500 nM | 100 to 500 nM | – | – | – | –
2 | O=C(O)C1CN(Cc2ccc(-c3noc(-c4cn5cc(C(F)(F)F)cc(Br)c5n4)n3)c(Cl)c2)C1 [Example 132, 1-[(4-{5-[8-bromo-6-(trifluoromethyl)imidazo[1,2-a]pyridin-2-yl]-1,2,4-oxadiazol-3-yl}-3-chlorophenyl)methyl]azetidine-3-carboxylic acid] | – | ≤ 100 nM | 100 to 500 nM | 1000 to 5000 nM | – | – | –
3 | O=C(O)/C=C/c1cc(Cl)c(-c2noc(-c3cn4cc(C(F)(F)F)cc(Cl)c4n3)n2)cc1F [Entry 63] | – | ≤ 100 nM | ≤ 100 nM | 100 to 500 nM | – | – | –
4 | O=C(O)CCc1cc(F)c(-c2noc(-c3cn4cc(C(F)(F)F)cc(Cl)c4n3)n2)c(F)c1 [Entry 10] | 1000 to 5000 nM | ≤ 100 nM | 100 to 500 nM | – | – | – | –
5 | CC(C)Cc1cc(Cl)c2nc(-c3nc(-c4cc(F)c(CCC(=O)O)cc4Cl)no3)cn2c1 [Example 149, 3-(5-chloro-4-{5-[8-chloro-6-(2-methylpropyl)imidazo[1,2-a]pyridin-2-yl]-1,2,4-oxadiazol-3-yl}-2-fluorophenyl)propanoic acid] | – | ≤ 100 nM | ≤ 100 nM | – | ≤ 100 nM | – | –
6 | OC[C@H](O)COc1cc(Cl)c(-c2noc(-c3cn4cc(C(F)(F)F)cc(Cl)c4n3)n2)cc1Cl [Entry 39] | – | ≤ 100 nM | ≤ 100 nM | – | – | ≤ 100 nM | ≤ 100 nM
7 | OC[C@@H](O)COc1cc(Cl)c(-c2noc(-c3cn4cc(C(F)(F)F)cc(Cl)c4n3)n2)cc1Cl [Example 289, (2R)-3-[(2,5-dichloro-4-{5-[8-chloro-6-(trifluoromethyl)imidazo[1,2-a]pyridin-2-yl]-1,2,4-oxadiazol-3-yl}phenyl)oxy]propane-1,2-diol] | – | ≤ 100 nM | ≤ 100 nM | – | – | ≤ 100 nM | ≤ 100 nM
8 | OCCOc1cc(Cl)c(-c2noc(-c3cn4cc(C(F)(F)F)cc(Cl)c4n3)n2)cc1Cl [Example 288, 2-[(2,5-dichloro-4-{5-[8-chloro-6-(trifluoromethyl)imidazo[1,2-a]pyridin-2-yl]-1,2,4-oxadiazol-3-yl}phenyl)oxy]ethanol] | – | ≤ 100 nM | ≤ 100 nM | – | – | ≤ 100 nM | ≤ 100 nM
9 | OC[C@H](O)COc1cc(Cl)c(-c2nnc(-c3cn4cc(C(F)(F)F)cc(Cl)c4n3)s2)cc1Cl [Example 252, (25)-3-[(2,5-dichloro-4-{5-[8-chloro-6-(trifluoromethyl)imidazo[1,2-a]pyridin-2-yl]-1,3,4-thiadiazol-2-yl}phenyl)oxy]propane-1,2-diol] | – | ≤ 100 nM | ≤ 100 nM | – | – | ≤ 100 nM | 500 to 1000 nM
10 | O=C(O)CCc1cc(Cl)c(-c2nc(-c3cn4cc(C(F)(F)F)cc(Cl)c4n3)no2)cc1Cl [Example 315, 3-(2,5-dichloro-4-{3-[8-chloro-6-(trifluoromethyl)imidazo[1,2-a]pyridin-2-yl]-1,2,4-oxadiazol-5-yl}phenyl)propanoic acid] | – | ≤ 100 nM | ≤ 100 nM | – | – | ≤ 100 nM | 100 to 500 nM

Next, values leading:

Row | EC50 (S1P1 [1]; [5]) | EC50 (S1P1 [2]) | EC50 (S1P1 [3]) | EC50 (S1P1 [1]; read-out: Assay 3b EC50) | EC50 (S1P1 [1]; [6]) | EC50 (S1P1 [4]) | EC50 (hS1P1R (hEdg1)) | Compound
11 | 500 to 1000 nM | ≤ 100 nM | ≤ 100 nM | – | – | – | – | O=C(O)CCc1ccc(-c2noc(-c3cn4cc(C(F)(F)F)cc(Cl)c4n3)n2)cc1F [Entry 6]
12 | – | ≤ 100 nM | ≤ 100 nM | 100 to 500 nM | – | – | – | Cc1cc(CCC(=O)O)ccc1-c1noc(-c2cn3cc(C(F)(F)F)cc(Cl)c3n2)n1 [Entry 2]
13 | – | ≤ 100 nM | 100 to 500 nM | – | 500 to 1000 nM | – | – | Cc1cc(C(C)CC(=O)O)ccc1-c1noc(-c2cn3cc(C(F)(F)F)cc(Br)c3n2)n1 (centres unmarked) [Example 153, 3-(4-{5-[8-bromo-6-(trifluoromethyl)imidazo[1,2-a]pyridin-2-yl]-1,2,4-oxadiazol-3-yl}-3-methylphenyl)butanoic acid]
14 | – | ≤ 100 nM | ≤ 100 nM | 100 to 500 nM | – | – | – | COc1cc(Cl)c2nc(-c3nc(-c4cc(F)c(CCC(=O)O)cc4Cl)no3)cn2c1 [Entry 61]
15 | 1000 to 5000 nM | ≤ 100 nM | 100 to 500 nM | – | – | – | – | O=C(O)CCc1ccc(-c2nnc(-c3cn4cc(C(F)(F)F)cc(Cl)c4n3)o2)c(Cl)c1 [Example 99]
16 | – | ≤ 100 nM | 100 to 500 nM | 500 to 1000 nM | – | – | – | CS(=O)(=O)Nc1ccc(-c2noc(-c3cn4cc(C(F)(F)F)cc(Cl)c4n3)n2)c(Cl)c1 [Example 94, N-(3-chloro-4-{5-[8-chloro-6-(trifluoromethyl)imidazo[1,2-a]pyridin-2-yl]-1,2,4-oxadiazol-3-yl}phenyl)methanesulfonamide]
17 | – | ≤ 100 nM | ≤ 100 nM | 100 to 500 nM | – | – | – | O=C(O)CCc1cc(Cl)c(-c2nc(-c3cn4cc(C(F)(F)F)cc(Br)c4n3)no2)cc1F [Example 238, 3-(4-{3-[8-bromo-6-(trifluoromethyl)imidazo[1,2-a]pyridin-2-yl]-1,2,4-oxadiazol-5-yl}-5-chloro-2-fluorophenyl)propanoic acid]
18 | – | ≤ 100 nM | ≤ 100 nM | 100 to 500 nM | – | – | – | O=C(O)C1CC1c1cc(Cl)c(-c2noc(-c3cn4cc(C(F)(F)F)cc(Cl)c4n3)n2)cc1F (centres unmarked) [Example 85, 2-(5-chloro-4-{5-[8-chloro-6-(trifluoromethyl)imidazo[1,2-a]pyridin-2-yl]-1,2,4-oxadiazol-3-yl}-2-fluorophenyl)cyclopropanecarboxylic acid]
19 | – | ≤ 100 nM | ≤ 100 nM | 500 to 1000 nM | – | – | – | NCC(O)COc1cc(Cl)c(-c2noc(-c3cn4cc(C(F)(F)F)cc(Cl)c4n3)n2)cc1Cl (centres unmarked) [Example 226, 1-amino-3-[(2,5-dichloro-4-{5-[8-chloro-6-(trifluoromethyl)imidazo[1,2-a]pyridin-2-yl]-1,2,4-oxadiazol-3-yl}phenyl)oxy]propan-2-ol]
20 | – | ≤ 100 nM | 100 to 500 nM | 500 to 1000 nM | – | – | – | O=C(O)CCNCc1ccc(-c2noc(-c3cn4cc(C(F)(F)F)cc(Cl)c4n3)n2)c(Cl)c1 [Example 130, N-[(3-chloro-4-{5-[8-chloro-6-(trifluoromethyl)imidazo[1,2-a]pyridin-2-yl]-1,2,4-oxadiazol-3-yl}phenyl)methyl]-beta-alanine]
